Target: T1, PuORh (putrescine oxidase) (Rhodococcus erythropolis, UniProt B0F9F6)
T1 sequence (B0F9F6 1-453): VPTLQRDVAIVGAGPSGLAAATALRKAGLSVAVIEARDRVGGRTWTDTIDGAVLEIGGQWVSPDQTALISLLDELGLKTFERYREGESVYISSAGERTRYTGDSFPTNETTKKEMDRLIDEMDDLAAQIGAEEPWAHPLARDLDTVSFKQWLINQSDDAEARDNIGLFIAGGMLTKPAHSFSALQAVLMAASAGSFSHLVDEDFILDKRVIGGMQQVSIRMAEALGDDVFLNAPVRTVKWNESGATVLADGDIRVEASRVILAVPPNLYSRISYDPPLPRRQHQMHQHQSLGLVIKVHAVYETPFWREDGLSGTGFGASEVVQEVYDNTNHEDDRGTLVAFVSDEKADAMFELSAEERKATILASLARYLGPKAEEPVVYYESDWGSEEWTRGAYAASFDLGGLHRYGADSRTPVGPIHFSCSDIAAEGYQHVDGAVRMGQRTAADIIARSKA
Test: absorbance spectrum, release by trichloroacetic acid and heat
Type: binding
Details: non-covalent; pH 8.0, 25°C for spectra

Cc1cc2nc3c(=O)[nH]c(=O)nc-3n(C[C@H](O)[C@H](O)[C@H](O)COP(=O)(O)OP(=O)(O)OC[C@H]3O[C@@H](n4cnc5c(N)ncnc54)[C@H](O)[C@@H]3O)c2cc1C [FAD]
absorbance spectrum, release by trichloroacetic acid and heat: the FAD cofactor in PuORh, like in PuOMr, is not covalently bound

Source: PMC2243256 (Applied Microbiology and Biotechnology, 2008)
